How the values were obtained:
iNOS [1] = assay: Specific activity of iNOS in cell-free extracts of RAW 264.7 cells exposed to drug during LPS induction; format: cell-based, murine
Method: Assays for iNOS in Cell-Free Extracts. […] The reaction mixture for iNOS assay (in cell-free extracts) consists of Tris […] (pH 7.8); BSA 1 mg/ml; DTT 1 mM; CaCl2, 2 mM; FAD 10 μM; BH4 10 μM; L-arginine 30 μM; NADPH 1 mM. The assay mixture for cNOS consists of Tris 50 mM (pH 7.8); L-arginine 50 μM; calmodulin 10 μg/ml; BH4 10 μM; CaCl2 2 mM; NADPH 100 μM. RAW 264.7 cells were induced with LPS in the presence and absence of NSAIDs for 16-18 h. […] Cells were re-pelleted at 4° C. and resuspended in Tris buffer (10 mM, pH 7.4) containing 1 mg/ml each chymostatin, antipain, leupeptin and pepstatin, 1 mM DTT and 1 mM PMSF. Cells were lysed in a Polytron PT 1200 homogenizer (Kinematica AG, Switzerland) after 3 cycles of rapid freeze-thawing. The lysate was centrifuged at 16,000 rpm for 60 min at 4° C., and the supernatants were used as cell-free extracts. […] After 20 min the assays were terminated by heating the reaction mixture at 90° C. for 5 min. The precipitates were removed by centrifuging at 15,000 rpm for 20 min. Ten microliters (≈50,000 cpm) of the supernatant was spotted on activated Avicel TLC plates (Analtech, Newark, Del.). The TLC plates were developed in a solvent system consisting of ethanol:water:ammonia (80:16:4). Quantitation of the spot for L-[^3 3H]-citrulline was performed by a Bioscan System 200 Imaging Scanner. A phosphoimager can also be used for such quantification.
The specific activity of iNOS was determined in cellfre
extracts at a given time period as described. The nitrite and specific

iNOS [2] = assay: iNOS expression in stimulated rat chondrosarcomas; format: cell-based
Method: NSAIDs were tested in: (FIG. 5A) rat chondrosarcomas stimulated with LPS, and (FIG. 5B) unstimulated OA cartilage (n=3).

## CC(=O)Oc1ccccc1C(=O)O [Aspirin, aspirin]
iNOS [1]; 1 mM
  Specific activity of iNOS: 271.7 ± 17.2 pmol/min/mg protein
iNOS [1]; 2 mM
  Specific activity of iNOS: 231.3 ± 29.8 pmol/min/mg protein
iNOS [1]; 3 mM
  Specific activity of iNOS: 162.3 ± 25.9 pmol/min/mg protein
iNOS [1]; 3 mM, cell-free extracts, 16 h
  Specific activity, % inhibition: 47%
iNOS [1]; Mus musculus, RAW264.7, 16 h, read-out: Specific activity, % inhibition, 3 mM, cell-free extracts, 16 h
  inhibition at 3000 µM: 48%
iNOS [1]; Mus musculus, RAW264.7, read-out: IC50, specific enzyme activity of iNOS
  IC50: 3 mM
iNOS [1]; Mus musculus, RAW264.7, read-out: Specific activity, % inhibition, 1 mM
  inhibition at 1000 µM: 12%
iNOS [1]; Mus musculus, RAW264.7, read-out: Specific activity, % inhibition, 2 mM
  inhibition at 2000 µM: 25%
iNOS [2]; 72 h, added 1 h prior to cytokines
  inhibition of iNOS expression in rat chondrosarcomas: ~ 57%
iNOS [2]; LPS/cytokine-stimulated, L-NMMA 500 μM, indomethacin 20 μM
  effect on iNOS in rat chondrosarcomas: significant inhibition of iNOS

Reference: patent publication US5759836A, “Osteoarthritis-associated inducable isoform of nitric oxide synthetase” (priority 1995, dated 1998)
